{"source": "paper PMC8453848", "about": "“Effect of GLPG1205, a GPR84 Modulator, on CYP2C9, CYP2C19, and CYP1A2 Enzymes: In Vitro and Phase 1 Studies” (Clinical Pharmacology in Drug Development, 2021)", "key": {"[1]": {"conditions": "cited from earlier work"}, "[2]": {"experiment": "Test of solubility of GLPG1205 in culture medium for incubations", "type": "physicochemical", "conditions": "culture medium for incubation; final DMSO percentage 0.4%; read-out: limit of solubility in culture medium for incubations", "procedure": "Solubility and cytotoxicity experiments were performed prior to incubation of GLPG1205 with cells.\nTest of Solubility Prior to incubation of GLPG1205 with cells, a preliminary test of solubility was performed. Various stock solutions of GLPG1205 in dimethylsulfoxide (DMSO) were prepared. Different solutions were prepared by diluting the stock solutions in culture medium for incubation to obtain 100, 200, 250, 400 and 500 µM with different final percentages of solvent (maximum 0.5% DMSO, volume/volume [v/v])."}, "CYP1A2": {"tested_on": "CYP1A2", "experiment": "in vitro", "conditions": "human", "procedure": "(§1) GLPG1205 was incubated with monolayer cultures of fresh human hepatocytes from 3 individual donors for 24 hours (messenger ribonucleic acid [mRNA] analysis) or 48 hours (enzyme activity) at 6 different concentrations: 0.5, 1, 5, 10, 50, and 100 μM (0.19, 0.38, 1.89, 3.78, 18.9, and 37.8 μg/mL, respectively). All incubations contained 0.4% dimethylsulfoxide (DMSO). Incubation with 50 μM omeprazole containing 0.1% DMSO was used as a positive control. Incubations with 0.1% and 0.4% DMSO alone were used as negative controls.\n(§2) Following a 24‐hour incubation, CYP1A2 mRNA was quantified using real‐time quantitative reverse transcription polymerase chain reaction.\n(§3) A concentration‐dependent increase in mRNA of <100% was considered a negative finding when the increase in mRNA was less than 20% of the response of the positive control.\n(§4) Incubation for CYP1A2 Induction Experiment The incubations for enzyme activity measurements were performed with cell monolayers in 96-well plates and the incubations for mRNA measurements were performed with cell monolayers in 24-well plates.^3\n(§5) GLPG1205 was incubated with monolayer culture of human fresh hepatocytes from 3 individual donors for 24 or 48 hours, for messenger ribonucleic acid (mRNA) analysis and enzyme activity, respectively, at 6 different concentrations (n = 3): 0.1, 0.5, 1, 5, 10 and 50 µM (0.038, 0.19, 0.38, 1.89, 3.78 and 18.9 µg/mL, respectively). […]\n(§6) mRNA Analysis At the end of the 24-hour incubation period, the incubation medium was removed and the cell monolayers were washed twice with 500 µL phosphate buffered saline. […] Total RNA and RNA quality were assessed by measuring 260/280 nm and 260/230 nm absorbance ratios. RNA concentrations were used to normalize the quantity of RNA used for the reverse transcriptase assay. […]\n(§7) Quantitative real-time reverse transcription polymerase chain reaction (qRT-PCR) was performed using SYBRGreen® validated primers for CYP1A2.^3 The housekeeping gene glyceraldehyde 3-phosphate dehydrogenase (GAPDH) was analyzed in parallel as the control gene. […]\n(§8) The fold induction (FI) was determined as: […]"}, "CYP1A2 mRNA": {"tested_on": "CYP1A2 mRNA", "experiment": "in vitro", "conditions": "human, hepatocytes, 24 h", "procedure": "as §1, §2, §3, §4, §5, §6, §7, §8"}, "[3]": {"conditions": "once‐daily oral dosing for 14 days"}}}
{"smiles": "O=c1nc(OC[C@@H]2COCCO2)cc2n1CCc1cc(C#CC3CC3)ccc1-2", "note": "[GLPG1205, 9‐cyclopropylethynyl‐2‐[(S)‐1‐(1,4)dioxan‐2‐ylmethoxy]‐6,7‐dihydropyrimido[6,1‐a]isoquinolin‐4‐one]", "values": [{"measurement": "median time to maximum plasma concentration (tmax)", "setting": "[1]; healthy male subjects", "value": 4, "unit": "h"}, {"measurement": "maximum tolerated dose", "setting": "[1]; healthy subjects", "value": 100, "unit": "mg once a day"}, {"measurement": "Cmax", "setting": "[1]; multiple doses of GLPG1205 100 mg once a day, steady state", "value": 3910, "unit": "ng/mL"}, {"measurement": "day by which steady‐state plasma concentration was reached", "setting": "[1]; [3]", "value": "≤ 10", "unit": "days"}, {"measurement": "elimination half‐life, average", "setting": "[1]; [3]", "value": 88.6, "unit": "h"}, {"measurement": "solubility at 24 h", "setting": "[2]", "value": 100, "unit": "µM"}, {"measurement": "fold induction at 24 h, 1 µM", "setting": "CYP1A2; CYP1A2 mRNA, fold induction, mean (SD)", "value": "6.12 ± 0.65"}, {"measurement": "fold induction at 24 h, 1 µM", "setting": "CYP1A2; maximum fold induction of CYP1A2 mRNA", "value": 6}, {"measurement": "increase in CYP1A2 mRNA expression compared with the vehicle control", "setting": "CYP1A2 mRNA", "value": "greater than 100%"}]}
